{
  "source": "patent US9889176B2",
  "about": "“Treating renal and liver dysfunction with TLR4 antagonists” (YAQRIT LIMITED, priority 2010, dated 2018)",
  "key": {"BDL rats": {"tested_on": "BDL rats", "experiment": "Brain TLR4 expression, brain water and survival in BDL rats with or without LPS", "format": "in vivo", "conditions": "for brain TLR4 immunohistochemistry: FIG. 23", "excerpt": "(§1) These experiments utilised an established animal model of cirrhosis, the bile duct ligated (BDL) rat. BDL rats may be generated by methods known in the art. For example, male Sprague-Dawley rats (200-250 g) may be used for this procedure. Following anaesthetisation, a mid-line laparotamy may be performed, the bile duct exposed, triply ligated with 4.0 silk suture, and severed between the second and third ligature. The wound is then closed in layers with absorbable suture, and the animal allowed to recover in a quiet room before being returned to the animal storage facility. 6 groups of Sprague-Dawley rats were studied: n=6 in each group. […] Experiments were carried out using Sham treated and BDL rats as described above."}, "[1]": {"tested_on": "bile duct ligated (BDL) rat", "experiment": "Bile duct ligated (BDL) rat model of cirrhosis with or without LPS: renal dysfunction, selective gut decontamination", "format": "in vivo, Sprague-Dawley rats", "conditions": "for kidney TLR4 protein expression (Western Blot) / plasma creatinine: Norfloxacin 20 mg/kg orally for 10 days; for kidney TLR4 protein expression (Western Blot): FIG. 9; for NFkBp65 expression in Kidney: FIG. 10; for plasma creatinine: FIG. 8", "excerpt": "as §1, with “The aims of this study was to determine (1) Whether cirrhosis is associated with an upregulation of TLR4, NFkB and proinflammatory cytokines in kidney. […] Biochemistry: Functional aspect of Kidneys was assessed by measuring plasma creatinine. Protein expression of TLR4 and NFkBp65 was assessed using a commonly used Western Blot technique. Localisation of TLR4 and Caspase (effector protein leading to cell death) was done by Immunohistochemistry. Cytokines” for “Experiments”, “quantified” for “carried out”, “the ELISA bead array.” for “Sham treated and BDL rats as described above.”"}, "[2]": {"conditions": "BDL and BDL+LPS groups, FIG. 13"}},
  "data": [
    {"smiles": "CCn1cc(C(=O)O)c(=O)c2cc(F)c(N3CCNCC3)cc21", "note": "[Norfloxacin]", "values": [
      {"measurement": "brain TLR4 immunohistochemistry", "setting": "BDL rats; BDL animals treated with LPS", "result": "could be prevented"},
      {"measurement": "brain TLR4 immunohistochemistry", "setting": "BDL rats; BDL animals", "result": "could be prevented"},
      {"measurement": "brain TLR4 protein expression", "setting": "BDL rats; increase in BDL and BDL+LPS rats, FIG. 22", "result": "could be prevented"},
      {"measurement": "brain swelling measured by brain water", "setting": "BDL rats; increase in BDL and BDL+LPS rats, FIG. 24", "result": "could be prevented"},
      {"measurement": "kidney TNFα", "setting": "[1]; BDL and BDL+LPS groups, FIG. 11", "result": "prevented the rise"},
      {"measurement": "Kidney IL6 (local IL6 production)", "setting": "[1]; BDL and BDL+LPS groups, FIG. 12", "result": "no effect"},
      {"measurement": "plasma IL6 (systemic proinflammatory cytokine)", "setting": "[1]; [2]", "result": "reducing the secretion of cytokines"},
      {"measurement": "plasma TNFα (systemic proinflammatory cytokine)", "setting": "[1]; [2]", "result": "reducing the secretion of cytokines"},
      {"measurement": "kidney caspase 3 (cell death), immunohistochemistry", "setting": "[1]; BDL and BDL+LPS groups, FIG. 16", "result": "reduction in the caspase positivity"},
      {"measurement": "kidney TLR4 protein expression (Western Blot)", "setting": "[1]; BDL group administered LPS, p=0.02", "result": "reduced"},
      {"measurement": "NFkBp65 expression in Kidney", "setting": "[1]; BDL rats administered LPS, p=0.01", "result": "attenuated"},
      {"measurement": "plasma creatinine", "setting": "[1]; BDL rats, p=0.02", "result": "reduction"},
      {"measurement": "kidney TLR4 protein expression (Western Blot)", "setting": "[1]; BDL rats, p=0.02", "result": "reduced"},
      {"measurement": "NFkBp65 expression in Kidney", "setting": "[1]; BDL rats, p=0.02", "result": "attenuated"},
      {"measurement": "renal failure induced by LPS", "setting": "[1]; BDL rats, selective gut decontamination", "result": "prevents renal failure"},
      {"measurement": "plasma creatinine", "setting": "[1]; BDL+LPS rats, p=0.03", "result": "reduction"}
    ]}
  ]
}
